Experiment [1] has as its target T1, proteasomal chymotrypsin-like activity of MDA-MB-231 cell extracts (Homo sapiens, UniProt P28074).
T1 construct: endogenous in cells; host or cells: MDA-MB-231 human breast cancer cells (ATCC), cell extract
T1 sequence (P28074 60-263): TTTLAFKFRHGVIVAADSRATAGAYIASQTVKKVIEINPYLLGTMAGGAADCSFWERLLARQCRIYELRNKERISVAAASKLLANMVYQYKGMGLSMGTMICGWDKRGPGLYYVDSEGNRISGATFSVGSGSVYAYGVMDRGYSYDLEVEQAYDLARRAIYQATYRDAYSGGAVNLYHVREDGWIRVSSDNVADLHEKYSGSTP
The experiment can be described thus: Proteasomal chymotrypsin-like activity in MDA-MB-231 cell lysate with high COMT activity. The format is biochemical. Conditions: 10 μM. As for the experimental part: (A) MDA-MB-231 cell extracts (5.7 μg) were incubated with different concentrations of compound 5 or 7 or EGCG for 2 hours, followed by performance of proteasomal chymotrypsin-like activity assay. EGCG was used as a control. (B) MDA-MB-231 cell extracts (5.7 μg) were pre-treated with 10 μM DNC for 20 minutes, followed by co-incubation with compound 5, or 7 or EGCG for 2 h. The proteasomal chymotrypsin-like activity was measured.
Human breast cancer MDA-MB-231 cell lysate that contains high COMT activity were treated with varying concentrations of compound 5 or 7. […] Thus, consistent with previous reports EGCG is also susceptible to methylation by COMT (H., Lu, X. Meng, C. S. Yang, Drug Metabolism and Disposition; 31; 572, 2003).

Experiment [2] deals with human multiple myeloma ARP cells. In words: MTT assay in multiple myeloma ARP cells, alone or with Velcade. Conditions: 20 μM plus varying doses of Velcade, 48 h. The experiment is classed as cell-based. As for the experimental part:
The cells were treated with Velcade™ alone or with 20 μM of compounds 5, 7 and 23 or in combination with varying doses of Velcade™ for 48 hrs, followed by a MTT assay.
Human multiple myeloma cells (Arp and Opm1) cells, kindly provided by Dr. Ramesh Batchu (Wayne State University), were grown in RPMI-1640 medium supplemented with 10% FBS, 100 units/ml of penicillin, and 100 μg/ml of streptomycin. Cells were maintained at 37° C. in 5% CO2 (Mujtaba T, et al., Int J Mol Med. (2012) 29(1):102-6).
(§1) Cells were grown in a 96-well plate. Triplicate wells of cells were treated with indicated concentrations of EGCG or EGCG analogs for 24 h. After aspiration of medium, MTT (1 mg/ml) was then added to the cell cultures, followed by incubation for 3 h at 37° C. After cells were crystallized, MTT was removed and DMSO was added to dissolve the metabolized MTT product. The absorbance was then measured on a Wallac Victor3 1420 Multi-label counter at 540 nm.
Background: Tetrazolium assays rely on reduction of a dye to a coloured formazan, in cell work by metabolically active cells.

Experiment [3] relates to CD44high/CD24low cell population of MDA-MB-231 cells. The experiment can be described thus: Flow cytometry of CD44high/CD24low cell population in MDA-MB-231 cells. The experiment is classed as cell-based, human. Particulars: 48 h. As to the method:
The MDA-MB-231 cells were treated with the indicated concentrations of compounds 23 and 30 for 48 hours, followed by flow cytometry analysis. Columns show mean of three experiments; bars, SD; **, p<0.01; *, p<0.1.
The treated cells were washed once with phosphate-buffered saline (PBS) and then harvested with Cell Dissociation Buffer (enzyme-free, Invitrogen, cat. #13150-016). Detached cells were washed with PBS containing 1% FCS (a wash buffer), and resuspended in the wash buffer (1,000 cells/100 μl). The cells were stained with combinations of fluorochrome-conjugated monoclonal antibodies obtained from BD Biosciences (San Diego, Calif.) against human CD44 (FITC; cat. #555478) and CD24 (PE; cat. #555428) or their respective isotype controls at concentrations recommended by the manufacturer and incubated at 4° C. in the dark for 30 to 40 min. The labeled cells were washed in the wash buffer, then fixed in PBS containing 1% paraformaldehyde, and then analyzed on a FACSVantage (BD Biosciences) (Sheridan et al. Breast Cancer Res. (2006) 8, R59).
The flow cytometry analysis was performed as follows: The treated cells were washed once with phosphate-buffered saline (PBS) and then harvested with Cell Dissociation Buffer (enzyme-free, Invitrogen, cat. #13150-016). Detached cells were washed with PBS containing 1% FCS (a wash buffer), and resuspended in the wash buffer (1,000 cells/100 μl). The cell were stained with combinations of fluorochrome-conjugated monoclonal antibodies obtained from BD Biosciences (San Diego, Calif., USA) against human CD44 (FITC; cat. #555478) and CD24 (PE; cat. #555428) or their respective isotype controls at concentrations recommended by the manufacturer and incubated at 4° C. in the dark for 30 to 40 min. The labeled cells were washed in the wash buffer, then fixed in PBS containing 1% paraformaldehyde, and then analyzed on a FACSVantage (BD Biosciences) (Sheridan et al., Breast Cancer Res., 2006, 8: R59).
Metformin could selectively target cancer stem cells and reduce the CD44high/CD24low cell population in TNBC cells through activation of AMPK signaling (Hirsch et al., Cancer Research, 2009, 69: 7507-7511). To determine whether EGCG analogs 23 and 30 can reduce the stem cell population in the breast cancer cells, the human breast cancer MDA-MB-231 cells were treated with different concentrations of compounds 23 and 30 for 48 hours. The treated cells were stained with special antibodies against human CD44 (FITC), CD24 (PE) or their respective isotype controls, followed by washing, fixing and analysed by flow cytometry.
For orientation: A flow cytometer gives signals particle by particle.

The test system of experiment [4] is Human breast cancer MDA-MB-231 cells. In words: MTT cell proliferation assay in MDA-MB-231 cells. The experiment is classed as cell-based. Conditions: indicated concentrations, 24 h, MTT. As for the experimental part: Human breast cancer MDA-MB-231 cells were treated with 25 or 50 μM EGCG analogs for 24 hours, followed by MTT assay. Pro-EGCG was used as a comparison.
Human breast cancer MDA-MB-231 cells with high COMT activity were treated with 50 μM EGCG analogs for 24 hours in the absence or presence of 10 μM DNC, followed by MTT assay. Pro-EGCG was used as a comparison.
(A) EGCG analogs 23 and 30 inhibited breast cancer cell proliferation. MDA-MB-231 cells were treated with indicated concentrations of 23, 30 or metformin for 24 h, followed by a MTT assay. *, P<0.1; **, P<0.01. Columns, mean of three experiments; bars, SD. (B) EGCG analogs 23 and 30 activated AMPK at a dose-dependent manner, measured by elevated level of phosphor-AMPKα and its downstream proteins of phosphor-Raptor. […] MDA-MB-231 cells were treated with indicated concentrations of 23 or 30 for 3 h, followed by Western blot analysis with the indicated antibodies. The numbers underneath the Western results of p-AMPKα indicated normalized phosphor-AMPKα/β-actin ratios. […]
as §1

What is called inhibition is the share of the control response that was lost under treatment. A higher inhibition goes with strong suppression. Regarding `O=C(O[C@@H]1Cc2c(O)cc(O)cc2O[C@@H]1c1cc(O)c(O)c(O)c1)c1cc(O)c(O)c(O)c1` [Compound 1, (−)-Epigallocatechin gallate, reference compound], the inhibition at 10 µM in experiment [1] was around 22%.

For the compound `O=C(O[C@H]1Cc2ccccc2C[C@H]1OC(=O)c1cc(O)c(Br)c(O)c1)c1cc(O)c(Br)c(O)c1` [Compound 23], the “effect on cell proliferation when combined with Velcade” value in experiment [2] was “synergistic inhibitory effect”. Besides, the “reduction of CD44high/CD24low cell population (in words)” value in experiment [3] is “can reduce the CD44high/CD24low cell population”. The “inhibition of cell proliferation (in words)” value in experiment [4] is on record as “inhibit cell proliferation in a dose-dependent manner”.

With `Nc1ccc(C(=O)O[C@H]2Cc3ccccc3C[C@H]2OC(=O)c2ccc(N)cc2)cc1` [Compound 30], the “decrease of the CD44high/CD24low population” value is listed as 43.3% in experiment [3] (10 μM) and 71.7% in experiment [3] (20 μM). The “reduction of CD44high/CD24low cell population (in words)” value in experiment [3] is listed as “can reduce the CD44high/CD24low cell population”. For the same compound, the “inhibition of cell proliferation (in words)” value in experiment [4] is given as “inhibit cell proliferation in a dose-dependent manner”.

These data come from patent US20140378541A1, “Synthetic Epigallocatechin Gallate (EGCG) Analogs” (WAYNE STATE UNIVERSITY, priority 2011, published 2014).
